Assay results: PubChem BioAssay AID1963825 (Molecular Pharmacology Branch, DTP, NCI, 2024)

Assay: Anticancer human tumor 997537-175-T-J1-PDC patient-derived colon adenocarcinoma cell line growth inhibition [POLQ]
Settings: 997537-175-T-J1-PDC complex spheroid viability, combination with POLQ inhibitors; for IC50: curve of first compound; for viability, T/C: stronger effect = lower value
How it was run: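 Complex spheroid viability model combining PDC tumour cells with endothelial (HUVEC) and MSC stromal cells. Novobiocin, ART-558 or RP6685 were tested singly and in combination with standard and investigational anticancer drugs. Each was titrated in half-log steps from near clinical Cmax, or from 10 microM where Cmax was unknown.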

[1] = second compound 0.0316 µM, first compound 0.0316 µM
[2] = second compound 0.0316 µM, first compound 0.1 µM
[3] = second compound 0.1 µM, first compound 0.0316 µM
[4] = second compound 0.1 µM, first compound 0.1 µM
[5] = second compound 0.316 µM, first compound 0.0316 µM
[6] = second compound 0.316 µM, first compound 0.1 µM
[7] = second compound 1 µM, first compound 0.0316 µM
[8] = second compound 1 µM, first compound 0.1 µM
[9] = second compound 3.16 µM, first compound 0.0316 µM
[10] = second compound 3.16 µM, first compound 0.1 µM
[11] = second compound 10 µM, first compound 0.0316 µM
[12] = second compound 10 µM, first compound 0.1 µM
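Further: luminescence signal used as a surrogate for viable cells; spheroids exposed to drugs for seven days before readout.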

## CC[C@@]1(O)C(=O)OCc2c1cc1n(c2=O)Cc2cc3c(CN(C)C)c(O)ccc3nc2-1 + Nc1ccc(C#CCN(C(=O)Cc2ncc(C(F)(F)F)cc2C(F)(F)F)c2ccc(F)cc2)nn1
Second compound 0.0316 µM
  IC50: > 100 nM
Second compound 0.1 µM
  IC50: > 100 nM
Second compound 0.316 µM
  IC50: 90.8 nM
Second compound 1 µM
  IC50: > 100 nM
Second compound 3.16 µM
  IC50: > 100 nM
Second compound 10 µM
  IC50: > 100 nM
Second compound 0.0316 µM, first compound 0.000316 µM
  viability, T/C: 104%
Second compound 0.0316 µM, first compound 0.001 µM
  viability, T/C: 94.6%
Second compound 0.0316 µM, first compound 0.00316 µM
  viability, T/C: 104%
Second compound 0.0316 µM, first compound 0.01 µM
  viability, T/C: 111%
[1]
  viability, T/C: 94.7%
[2]
  viability, T/C: 66.3%
Second compound 0.1 µM, first compound 0.000316 µM
  viability, T/C: 101%
Second compound 0.1 µM, first compound 0.001 µM
  viability, T/C: 91%
Second compound 0.1 µM, first compound 0.00316 µM
  viability, T/C: 101%
Second compound 0.1 µM, first compound 0.01 µM
  viability, T/C: 103%
[3]
  viability, T/C: 83.2%
[4]
  viability, T/C: 58.3%
Second compound 0.316 µM, first compound 0.000316 µM
  viability, T/C: 104%
Second compound 0.316 µM, first compound 0.001 µM
  viability, T/C: 90.9%
Second compound 0.316 µM, first compound 0.00316 µM
  viability, T/C: 107%
Second compound 0.316 µM, first compound 0.01 µM
  viability, T/C: 101%
[5]
  viability, T/C: 77.3%
[6]
  viability, T/C: 47.5%
Second compound 1 µM, first compound 0.000316 µM
  viability, T/C: 93.3%
Second compound 1 µM, first compound 0.001 µM
  viability, T/C: 89.8%
Second compound 1 µM, first compound 0.00316 µM
  viability, T/C: 102%
Second compound 1 µM, first compound 0.01 µM
  viability, T/C: 101%
[7]
  viability, T/C: 83.9%
[8]
  viability, T/C: 57.2%
Second compound 3.16 µM, first compound 0.000316 µM
  viability, T/C: 95.7%
Second compound 3.16 µM, first compound 0.001 µM
  viability, T/C: 98.2%
Second compound 3.16 µM, first compound 0.00316 µM
  viability, T/C: 107%
Second compound 3.16 µM, first compound 0.01 µM
  viability, T/C: 100%
[9]
  viability, T/C: 79%
[10]
  viability, T/C: 60.6%
Second compound 10 µM, first compound 0.000316 µM
  viability, T/C: 96.7%
Second compound 10 µM, first compound 0.001 µM
  viability, T/C: 99.4%
Second compound 10 µM, first compound 0.00316 µM
  viability, T/C: 116%
Second compound 10 µM, first compound 0.01 µM
  viability, T/C: 107%
[11]
  viability, T/C: 81.3%
[12]
  viability, T/C: 58.5%

## CC(C)n1c(=O)n(C)c2cnc3cc(F)c(-c4ccc(OCCCN5CCCCC5)nc4)cc3c21 + Nc1ccc(C#CCN(C(=O)Cc2ncc(C(F)(F)F)cc2C(F)(F)F)c2ccc(F)cc2)nn1
Second compound 0.0316 µM
  IC50: > 10000 nM
Second compound 0.1 µM
  IC50: > 10000 nM
Second compound 0.316 µM
  IC50: > 10000 nM
Second compound 1 µM
  IC50: > 10000 nM
Second compound 3.16 µM
  IC50: > 10000 nM
Second compound 10 µM
  IC50: > 10000 nM
[1]
  viability, T/C: 96%
[2]
  viability, T/C: 107%
Second compound 0.0316 µM, first compound 0.316 µM
  viability, T/C: 92.5%
Second compound 0.0316 µM, first compound 1 µM
  viability, T/C: 98%
Second compound 0.0316 µM, first compound 3.16 µM
  viability, T/C: 85.5%
Second compound 0.0316 µM, first compound 10 µM
  viability, T/C: 91.3%
[3]
  viability, T/C: 98.2%
[4]
  viability, T/C: 111%
Second compound 0.1 µM, first compound 0.316 µM
  viability, T/C: 113%
Second compound 0.1 µM, first compound 1 µM
  viability, T/C: 105%
Second compound 0.1 µM, first compound 3.16 µM
  viability, T/C: 97.2%
Second compound 0.1 µM, first compound 10 µM
  viability, T/C: 77.4%
[5]
  viability, T/C: 97%
[6]
  viability, T/C: 91.1%
Second compound 0.316 µM, first compound 0.316 µM
  viability, T/C: 107%
Second compound 0.316 µM, first compound 1 µM
  viability, T/C: 89.9%
Second compound 0.316 µM, first compound 3.16 µM
  viability, T/C: 107%
Second compound 0.316 µM, first compound 10 µM
  viability, T/C: 90.2%
[7]
  viability, T/C: 105%
[8]
  viability, T/C: 107%
Second compound 1 µM, first compound 0.316 µM
  viability, T/C: 92.6%
Second compound 1 µM, first compound 1 µM
  viability, T/C: 89.4%
Second compound 1 µM, first compound 3.16 µM
  viability, T/C: 105%
Second compound 1 µM, first compound 10 µM
  viability, T/C: 107%
[9]
  viability, T/C: 97.3%
[10]
  viability, T/C: 104%
Second compound 3.16 µM, first compound 0.316 µM
  viability, T/C: 104%
Second compound 3.16 µM, first compound 1 µM
  viability, T/C: 83.3%
Second compound 3.16 µM, first compound 3.16 µM
  viability, T/C: 97.8%
Second compound 3.16 µM, first compound 10 µM
  viability, T/C: 98.7%
[11]
  viability, T/C: 102%
[12]
  viability, T/C: 103%
Second compound 10 µM, first compound 0.316 µM
  viability, T/C: 97.8%
Second compound 10 µM, first compound 1 µM
  viability, T/C: 101%
Second compound 10 µM, first compound 3.16 µM
  viability, T/C: 96.2%
Second compound 10 µM, first compound 10 µM
  viability, T/C: 81.5%
